Columns and labels:
[1] = system: prostacyclin receptor (CNS) in the thalamus ([^3 H] isocarbacyclin receptor); assay: Displacement test relative to tritium-labelled isocarbacyclin, thalamus (CNS), autoradiography of frozen brain sections; assay type: binding, rat; settings: for Binding ratio to [^3 H] isocarbacyclin receptor: thalamus (CNS), 10 nM [^3 H]isocarbacyclin, 4° C., 2 h, pH 7.4
Procedure: (§1) Blood ingredients were removed from the brain of a rat by systemic perfusion, and were frozen, thus preparing a frozen section having a thickness of 10 μm. This section was incubated with 10 nM [^3 H]isocarba cyclin and isocarbacyclin derivatives at various concentrations, at 4° C. for two hours in 50 mM Tris/HCl pH 7.4 and 20 mM MgCl2 solution. After incubation and washing, the solution was dried, thereby preparing an autoradiography film of the section. A displacement value for each derivative was determined by quantitative analysis of the autoradiography (n=at least 4).
1) The results in the thalamus (CNS) are shown in Tables 1 and 2 for the following compounds: [drawing 27]

[2] = target: T1, prostacyclin receptor (PNS) in the medulla oblongata nucleus ([^3 H] isocarbacyclin receptor) (Rattus norvegicus, UniProt P43253); assay: Displacement test relative to tritium-labelled isocarbacyclin, medulla oblongata nucleus (PNS), autoradiography of frozen brain sections; settings: 10 nM [^3 H]isocarbacyclin, 4° C., 2 h, pH 7.4, read-out: Binding ratio to [^3 H] isocarbacyclin receptor; for activity at 0.3 µM: un-labelled compound 3 × 10^-7 M; for activity at 0.03 µM: un-labelled compound 3 × 10^-8 M; for activity at 0.003 µM: un-labelled compound 3 × 10^-9 M; for activity at 1 µM: un-labelled compound 10^-6 M; for activity at 0.1 µM: un-labelled compound 10^-7 M; for activity at 0.01 µM: un-labelled compound 10^-8 M
T1 construct: Blood ingredients were removed from the brain of a rat by systemic perfusion; from tissue; host or cells: rat brain, frozen sections, medulla oblongata nucleus (nucleus solitarius) read by autoradiography
T1 sequence (P43253 whole entry, the tested form may be a part): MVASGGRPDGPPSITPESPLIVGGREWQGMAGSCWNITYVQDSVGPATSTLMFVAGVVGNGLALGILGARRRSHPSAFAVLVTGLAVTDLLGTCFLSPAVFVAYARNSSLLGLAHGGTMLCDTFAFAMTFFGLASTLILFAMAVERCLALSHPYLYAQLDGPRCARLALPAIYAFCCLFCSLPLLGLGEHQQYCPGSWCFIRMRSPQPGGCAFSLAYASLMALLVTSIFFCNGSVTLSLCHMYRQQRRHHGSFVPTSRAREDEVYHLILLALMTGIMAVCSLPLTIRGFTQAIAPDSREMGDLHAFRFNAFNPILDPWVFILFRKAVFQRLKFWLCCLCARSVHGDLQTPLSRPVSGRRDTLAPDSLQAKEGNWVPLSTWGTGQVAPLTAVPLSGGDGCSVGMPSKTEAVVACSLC
Procedure: as §1

[3] = system: prostacyclin binding sites in cerebral hemisphere; settings: autoradiography, frozen cryostat sections; cited from earlier work
platelets = assay: Platelet aggregation inhibiting activity (ADP-induced, platelet rich plasma); assay type: cell-based, rat; settings: for IC50: rat platelet rich plasma, 100 μM ADP, 5 μl, 37° C., 1 min preincubation
Procedure: Blood was totally taken from the abdominal aorta of an anesthetized rat (body weight: 500 g). Then, 1/10 volume part of 3.8% sodium citrate was added to the sampled blood and the mixture was centrifugally separated at 1,000 rpm for ten minutes to achieve an upper layer of platelet rich plasma (PRP). The lower layer was then further centrifugally separated at 3,000 rpm for ten minutes to prepare platelet poor plasma (PPP). The number of platelets in PRP was measured, and PPP was diluted to adjust the number to […] to serve as a platelet solution. The platelet solution was placed in an amount of 90 μl into a cuvette, and the drug to be tested in an amount of […] was added for incubation at 37° C. for one minute. Then, an aggregation agent (100 μM ADP) in an amount of 5 μl was added to cause aggregation of platelets, and changes in […] were measured. Control of aggregation activity was conducted by using turbidity upon addition of physiological saline.

[4] = system: binding site of iloprost in platelets; settings: cited from earlier work
nervous system = settings: cited from earlier work
dopamine D1 receptors = settings: cited from earlier work
[5] = neutral or oxidizing conditions; cited from earlier work
[6] = system: platelets aggregation / vasodilation; settings: compared with natural prostacyclin; cited from earlier work
[7] = un-labelled compound 3 × 10^-7 M, 0.3 µM
[8] = un-labelled compound 3 × 10^-8 M, 0.03 µM
[9] = un-labelled compound 3 × 10^-9 M
[10] = un-labelled compound 10^-6 M, 1 µM
[11] = un-labelled compound 10^-7 M, 0.1 µM

| SMILES | Binding ratio to [^3 H] isocarbacyclin receptor [1, 7] | Binding ratio to [^3 H] isocarbacyclin receptor [1, 8] | Binding ratio to [^3 H] isocarbacyclin receptor [1, 9] | Binding ratio to [^3 H] isocarbacyclin receptor [1, 10] | Binding ratio to [^3 H] isocarbacyclin receptor [1, 11] | Binding ratio to [^3 H] isocarbacyclin receptor ([1]; un-labelled compound 10^-8 M) | activity at 0.3 µM [2] | activity at 0.03 µM [2] | activity at 0.003 µM [2] | activity at 1 µM [2] | activity at 0.1 µM [2] | activity at 0.01 µM [2] | IC50 (platelets) | also measured |
| --- | --- | --- | --- | --- | --- | --- | --- | --- | --- | --- | --- | --- | --- | --- |
| CC#CCC(C)[C@H](O)/C=C/[C@@H]1[C@H]2C/C(=C/CCCC(=O)O)C[C@H]2C[C@H]1O (some centres unmarked) [[^3 H] iloprost] | – | – | – | – | – | – | – | – | – | – | – | – | – | prostacyclin binding sites found [3]: prostacyclin binding sites in corpus striatum, amygdala, hippocampus and part of the cerebral cortex |
| CC#CCC(C)[C@H](O)/C=C/[C@@H]1[C@H]2C/C(=C/CCCC(=O)O)C[C@H]2C[C@H]1O (some centres unmarked) [iloprost] | – | – | – | – | – | – | – | – | – | – | – | – | – | effects on the nervous system (nervous system): sedation, anticonvulsation, antihypoxemia (prolongation effects in hypoxemia) and synchronizing induction effects of brain waves antagonized by amphetamine; prevention of the binding of dopamine D1 receptors (dopamine D1 receptors): prevention of the binding of dopamine D1 receptors |
| Cc1cccc(CCC[C@@H](O)/C=C/[C@@H]2[C@H]3CC(CCCCC(=O)O)=C[C@H]3C[C@H]2O)c1 [Compound C] | 73.3% | 93.8% | 98.7% | 48.1% | 85.9% | 96.1% | 71.8% | 89.9% | 95% | 53.5% | 81.3% | 92% | – | – |
| CCCCC[C@H](O)/C=C/[C@@H]1[C@H]2C/C(=C/CCCC(=O)O)O[C@H]2C[C@H]1O [Natural prostacyclin] | – | – | – | – | – | – | – | – | – | – | – | – | – | chemical stability [5]: easily inactivated under neutral or oxidizing conditions |
| CCCCC[C@H](O)/C=C/[C@@H]1[C@H]2CC(CCCCC(=O)O)=C[C@H]2C[C@H]1O [Isocarbacyclin, 9(O)-methano-Δ^6(9α) prostaglandin I1] | 34.7% | 76.4% | 99.2% | 19.3% | 62.7% | 94.5% | 22.5% | 57.3% | 94% | 8% | – | 79% | 0.0025 µM | platelets aggregation inhibiting functions and vasodilating antihypertensive effects [6]: strong platelets aggregation inhibiting functions and vasodilating antihypertensive effects and other biological activities well comparable with those of natural prostacyclin |

More lines, main results first:

| Binding ratio to [^3 H] isocarbacyclin receptor [1, 7] | Binding ratio to [^3 H] isocarbacyclin receptor [1, 8] | Binding ratio to [^3 H] isocarbacyclin receptor [1, 9] | Binding ratio to [^3 H] isocarbacyclin receptor [1, 10] | Binding ratio to [^3 H] isocarbacyclin receptor [1, 11] | Binding ratio to [^3 H] isocarbacyclin receptor ([1]; un-labelled compound 10^-8 M) | activity at 0.3 µM [2] | activity at 0.03 µM [2] | activity at 0.003 µM [2] | activity at 1 µM [2] | activity at 0.1 µM [2] | activity at 0.01 µM [2] | IC50 (platelets) | SMILES | also measured |
| --- | --- | --- | --- | --- | --- | --- | --- | --- | --- | --- | --- | --- | --- | --- |
| 94.1% | 98.4% | 101.1% | 88.5% | 100.8% | 99.8% | 45.8% | 80.6% | 96.9% | 34.4% | 55.6% | 92.8% | – | Cc1cccc(CCC[C@H](O)/C=C/[C@@H]2[C@H]3CC(CCCCC(=O)O)=C[C@H]3C[C@H]2O)c1 [Compound D] | – |
| – | – | – | – | – | – | – | – | – | – | – | – | 0.063 µM | CCCCC[C@H](O)/C=C/[C@H]1[C@H](O)CC(=O)[C@@H]1CCCCCCC(=O)O [Prostaglandin E1, reference compound] | reaction with the binding site of iloprost [4]: the binding site of iloprost reacts also with PGE1 |
| 36.6% | 84.6% | 98.6% | 20.1% | 58.0% | 93.9% | 39.5% | 80.5% | 96.6% | 33.8% | 54.8% | 88.3% | 0.019 µM | Cc1cccc(C[C@H](O)/C=C/[C@@H]2[C@H]3CC(CCCCC(=O)O)=C[C@H]3C[C@H]2O)c1 [Compound B] | – |
| 25.4% | 67.0% | 97.4% | 15.7% | 48.3% | 89.2% | 69.8% | 79.3% | – | 52.5% | – | 74.1% | > 0.4 µM | Cc1cccc(C[C@@H](O)/C=C/[C@@H]2[C@H]3CC(CCCCC(=O)O)=C[C@H]3C[C@H]2O)c1 [Compound A, 15R-16-(3-methylphenyl)-17, 18, 19, 20-tetranolisocarbacycline] | binding to the thalamic prostacyclin receptor (CNS) ([1]; in words): firmly bound to the thalamic prostacyclin receptor (CNS); activity relative to the prostacyclin receptor (CNS) in the thalamus ([1]; in words, compared with isocarbacyclin): an activity stronger than that of isocarbacyclin; activity at 0.001 µM ([2]; un-labelled compound 10^-9 M (so in the source)): 84.7%; platelet aggregation inhibiting activity (platelets; in words): almost no platelet aggregation inhibiting activity |

Reference: US5700833A, “Isocarbacyclin derivatives” (Research Developement Corporation of Japan, priority 1995, dated 1997)
